These results are taken from ChEMBL document CHEMBL2029289, “Structure-activity relationship study of a CXC chemokine receptor type 4 antagonist, FC131, using a series of alkene dipeptide isosteres” (J Med Chem, 2012).

By IC50 is commonly meant the concentration that gives 50% inhibition. The low end stands for greater potency in that assay, the high end for weaker potency in that assay.

Sequence of C-X-C chemokine receptor type 4 (P61073 whole entry): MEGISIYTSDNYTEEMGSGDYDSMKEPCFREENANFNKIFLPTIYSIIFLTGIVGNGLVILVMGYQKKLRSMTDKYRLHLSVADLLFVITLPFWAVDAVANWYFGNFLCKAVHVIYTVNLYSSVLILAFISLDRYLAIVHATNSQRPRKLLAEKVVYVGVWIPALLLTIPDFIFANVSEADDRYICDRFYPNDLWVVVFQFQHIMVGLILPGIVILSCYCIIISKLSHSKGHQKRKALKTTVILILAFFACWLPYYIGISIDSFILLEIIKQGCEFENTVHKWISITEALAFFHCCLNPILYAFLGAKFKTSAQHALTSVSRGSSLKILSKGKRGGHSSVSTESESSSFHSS

This experiment has as its target C-X-C chemokine receptor type 4 (Homo sapiens, UniProt P61073). The experiment is described as follows: Displacement of [125I]SDF-1alpha from CXCR4 expressed in HEK293 cell membrane after 1 hr. Format: cell membranes. Background: In a radioligand displacement assay an active substance lowers the binding of a labelled ligand.
Take `CN1C(=O)[C@@H](Cc2ccc(O)cc2)NC(=O)CNC(=O)[C@H](Cc2ccc3ccccc3c2)NC(=O)[C@H](CCCN=C(N)N)NC(=O)[C@H]1CCCN=C(N)N`: the IC50 amounted to 63 nM.

`NC(N)=NCCC[C@H]1/C=C/[C@@H](Cc2ccc(O)cc2)NC(=O)CNC(=O)[C@H](Cc2ccc3ccccc3c2)NC(=O)[C@H](CCCN=C(N)N)NC1=O` came in with a 50% inhibitory concentration (IC50) of 330 nM.

In the case of `C/C1=C\[C@H](CCCNC(=N)N)C(=O)N[C@@H](CCCNC(=N)N)C(=O)N[C@@H](Cc2ccc3ccccc3c2)C(=O)NCC(=O)N[C@@H]1Cc1ccc(O)cc1`, the 50% inhibitory concentration (IC50) came to 500 nM.

On to `C/C1=C(/C)[C@@H](Cc2ccc(O)cc2)NC(=O)CNC(=O)[C@H](Cc2ccc3ccccc3c2)NC(=O)[C@H](CCCNC(=N)N)NC(=O)[C@H]1CCCNC(=N)N`, for which the IC50 amounted to 2500 nM.

The molecule `C/C1=C(/C)[C@@H](CCCNC(=N)N)C(=O)N[C@@H](CCCNC(=N)N)C(=O)N[C@@H](Cc2ccc3ccccc3c2)C(=O)NCC(=O)N[C@@H]1Cc1ccc(O)cc1` gave an IC50 of 100 nM.

Molecule `NC(N)=NCCC[C@H]1CC[C@H](Cc2ccc(O)cc2)NC(=O)CNC(=O)[C@H](Cc2ccc3ccccc3c2)NC(=O)[C@H](CCCN=C(N)N)NC1=O` returned an IC50 above 10000 nM.

The molecule `CN1C(=O)[C@@H](Cc2ccc(O)cc2)NC(=O)CNC(=O)[C@H](Cc2ccc3ccccc3c2)NC(=O)[C@H](CCCNC(=N)N)NC(=O)[C@@H]1CCCNC(=N)N` came in with a half-maximal inhibitory concentration (IC50) of 290 nM.
